Converted amounts (≈) assume the structure as drawn.
Tests used:
EMT6 cells [1] = assay: Cellular uptake of DOX by confocal laser scanning microscopy; format: cell-based, murine; details: for Mean Fluorescence Intensity: 5 μg DOX/ml
Method: (§1) EMT6 (murine breast tumor) and the resistant variant, EMT6/AR1 cells overexpressing P-glycoprotein were purchased from the National Cancer Institute (Bethesda, Md.). EMT6 cells were cultured in DMEM medium with 10% FBS, penicillin (100 U/ml) and streptomycin (100 μg/ml) at 37° C. with 5% CO2.
Cellular uptake of DOX was imaged by confocal laser scanning microscopy (CLSM). EMT6 cells were seeded on a cover slip placed in a 24-well plate (1×10^5 cell/well) for 24 h prior to the study. […] The medium was removed and the cells were washed with PBS twice before fixation with 10% of formaldehyde at room temperature for 20 min. The cover slip was then washed for another 2 times with PBS and mount on a glass slide with fluorescence shield containing DAPI. The cells were imaged under a Zeiss™ confocal microscope (LSM 700™) and the image was analyzed using the CellProfiler™ (Version 3.0) software.

EMT6 cells [2] = assay: Cellular uptake in the presence of apolipoprotein; format: cell-based, murine; details: 4 hours, apolipoprotein 5, 20, 100 μg/ml
Method: EMT6 cells were seeded in 12 wells on cover slip over night to be confluent. […] After treatment, the cover slips were fixed with 10% and were then mounted on slide with a DAPI contained fluorescence shield. The slides were imaged under a confocal microscopy. Doxorubicin signal in those images were then quantified by Cellprofiler™.

[3] = test system: EMT6 murine breast cancer cells; assay: In vitro cytotoxicity (MTT assay); format: cell-based
Method: as §1
EMT6 cells were seeded on a 96-well plate (1000 cells/well). Wells with medium only were used as blank. […] Two days later, 5 μl of MTT solution (5 mg/ml) was added to each well, followed by 4-h incubation. The medium was removed and 100 μl DMSO was added into each well, followed by incubation at room temperature for 15 min. Absorbance at 540 nm in each well was then measured by a plate reader. The cell viability was calculated as (Abs−Abblank)/(Ab100−Abblank)×100%, where Abs is the Absorbance540 nm for the experimental group, Abblank is the Absorbance540 nm of sample without cells and Ab100 is the Absorbance540 nm of sample without treatment.

SMILES: COc1cccc2c1C(=O)c1c(O)c3c(c(O)c1C2=O)C[C@@](O)(C(=O)CO)C[C@@H]3O[C@H]1C[C@H](N)[C@H](O)[C@H](C)O1 [DOX, doxorubicin]
- change of DOX cellular uptake in the presence of serum versus serum free (EMT6 cells [1]; EMT6 cells, 4 hr): did not significantly change
- Mean Fluorescence Intensity (EMT6 cells [1]; EMT6 cells, 4 hr, 10% Serum): 0.247 ± 0.021
- Mean Fluorescence Intensity (EMT6 cells [1]; EMT6 cells, 4 hr, Without Serum): 0.258 ± 0.014
- increased cellular uptake relative to PFSUVs-DOX and PLD (EMT6 cells [1]; absence of serum): ~15 fold
- effect of increasing concentrations of apolipoproteins on internalization (EMT6 cells [2]): no influence
- in vitro potency, fold more effective than PFSUVs-dox [3]: 4 fold
- IC50 ([3]; MTT, curve fitting): 0.025 µg/mL (≈ 0.046 µM)
